The source of these data is patent publication US7528141B2, “Use of cyclopenta[g]quinazoline derivatives for treating cancer” (BTG International Limited, priority 2001, dated 2009).

Molecules are shown by their SMILES. Values joined by “and” are separate entries in the source; they are usually repeats but may differ in a detail not shown here. Identical values can stand only once. Like-named read-outs stand apart in the source and are kept apart here.

Test [1] has as its target T1, thymidylate synthase (TS) from L1210 mouse leukaemia cells (Mus musculus, UniProt P07607).
T1 construct: obtained in partially purified form from L1210 mouse leukaemia cells; endogenous in cells; host or cells: L1210 mouse leukaemia cells (enzyme partially purified)
Nature of the test: Inhibition of isolated L1210 thymidylate synthase. In kind it is biochemical.

Test [2] concerns the target T2, reduced-folate carrier (RFC) (Mus musculus, UniProt P41438).
T2 construct: endogenous in cells; host or cells: L1210
T2 sequence (P41438 1-512): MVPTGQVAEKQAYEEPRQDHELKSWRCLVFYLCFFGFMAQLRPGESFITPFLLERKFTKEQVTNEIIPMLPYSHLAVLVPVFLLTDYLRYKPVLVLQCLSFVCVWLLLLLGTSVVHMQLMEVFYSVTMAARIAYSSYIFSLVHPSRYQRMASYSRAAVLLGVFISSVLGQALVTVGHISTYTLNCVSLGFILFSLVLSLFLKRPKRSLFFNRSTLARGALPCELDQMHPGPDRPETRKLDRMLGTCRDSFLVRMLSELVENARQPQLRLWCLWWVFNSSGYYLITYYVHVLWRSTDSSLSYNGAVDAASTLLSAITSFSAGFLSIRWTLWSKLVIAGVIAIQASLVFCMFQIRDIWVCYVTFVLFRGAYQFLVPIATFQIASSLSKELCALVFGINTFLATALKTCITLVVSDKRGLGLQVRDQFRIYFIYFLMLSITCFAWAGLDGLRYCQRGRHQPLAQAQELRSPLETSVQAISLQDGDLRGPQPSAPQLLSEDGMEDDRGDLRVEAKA
The test can be described thus: Inhibition of 3H MTX uptake in L1210 cells. In kind it is cell-based. As to conditions: Inhibition of 3H MTX uptake Ki, L1210, mouse L1210 tumor cells; high Ki = low affinity for RFC.

In test [3] the target is T3, reduced-folate carrier (RFC) (Homo sapiens, UniProt P41440).
T3 construct: endogenous in cells; host or cells: W1L2
T3 sequence (P41440 1-591): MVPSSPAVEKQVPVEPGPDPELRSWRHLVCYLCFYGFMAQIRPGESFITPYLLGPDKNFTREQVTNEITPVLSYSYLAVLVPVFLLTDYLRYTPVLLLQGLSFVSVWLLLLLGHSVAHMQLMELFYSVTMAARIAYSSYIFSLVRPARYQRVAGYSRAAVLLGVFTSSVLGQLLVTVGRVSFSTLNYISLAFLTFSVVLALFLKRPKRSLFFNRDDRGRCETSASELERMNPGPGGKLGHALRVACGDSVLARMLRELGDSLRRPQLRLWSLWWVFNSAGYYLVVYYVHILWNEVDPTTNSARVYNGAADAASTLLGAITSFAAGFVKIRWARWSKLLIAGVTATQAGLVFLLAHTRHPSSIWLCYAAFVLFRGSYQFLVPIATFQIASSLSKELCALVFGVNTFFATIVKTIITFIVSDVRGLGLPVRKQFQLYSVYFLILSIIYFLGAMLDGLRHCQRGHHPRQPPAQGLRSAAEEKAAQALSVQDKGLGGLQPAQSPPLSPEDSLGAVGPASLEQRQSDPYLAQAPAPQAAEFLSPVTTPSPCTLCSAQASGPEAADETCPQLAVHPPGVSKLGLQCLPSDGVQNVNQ
Nature of the test: Inhibition of 3H MTX uptake in W1L2 cells. In kind it is cell-based. The note with it: Inhibition of 3H MTX uptake Ki, W1L2, human lymphoblastoid W1L2 cells; high Ki = low affinity for RFC.

Test [4] addresses T4, α-FR (Mus musculus, UniProt P35846).
T4 construct: endogenous in cells; host or cells: mouse L1210-FBP cells
Nature of the test: Binding to α-FR relative to folic acid, L1210-FBP cells. The note with it: L1210-FBP mouse tumor cells overexpressing α-FR; folic acid = 1.

For test [5], the target named is T5, α-FR (Homo sapiens, UniProt P15328).
T5 construct: expressed in transfected cells; host or cells: A431 (human vulvar carcinoma)
Nature of the test: Binding to α-FR relative to folic acid, A431-FBP cells. The note with it: human A431 cells transfected with α-FR; folic acid = 1.

Test [6] concerns KB cells. The test can be described thus: Inhibition of cell growth, KB cells.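 For all read-outs here: KB nasopharyngeal carcinoma cells express the α-folate receptor, and leucovorin at 20 nM was the folate source in the growth medium.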 The note with it: for fold increased IC50 in presence of folic acid, KB: IC50 + 1 μM FA vs without FA.
The test system of test [7] is A431 cells. Nature of the test: Inhibition of cell growth, A431 cells. The note with it: for fold increased IC50 in presence of folic acid, A431: IC50 + 1 μM FA vs without FA.
The subject of test [8] is A431-FBP cells. The test can be described thus: Inhibition of cell growth, A431-FBP cells. The note with it: for fold increased sensitivity compared with A431, A431-FBP: A431 IC50 vs A431-FBP IC50; for fold increased IC50 in presence of folic acid, A431-FBP: IC50 + 1 μM FA vs without FA.
The mark [9] stands for this setting: read-out: Inhibition of isolated L1210 TS, Kiapp.
Setting [10] is: Homo sapiens, KB, read-out: Inhibition of cell growth, IC50, KB, 20 nM LV.
Where [11] appears, read: Homo sapiens, A-431, read-out: Inhibition of cell growth, IC50, A431.
Setting [12] is: Homo sapiens, read-out: Inhibition of cell growth, IC50, A431-FBP.
Where [13] appears, read: read-out: Inhibition of cell growth, IC50, A431-FBP + 1 μM FA, 20 nM LV, + 1 μM folic acid.

T5 sequence (P15328 25-234): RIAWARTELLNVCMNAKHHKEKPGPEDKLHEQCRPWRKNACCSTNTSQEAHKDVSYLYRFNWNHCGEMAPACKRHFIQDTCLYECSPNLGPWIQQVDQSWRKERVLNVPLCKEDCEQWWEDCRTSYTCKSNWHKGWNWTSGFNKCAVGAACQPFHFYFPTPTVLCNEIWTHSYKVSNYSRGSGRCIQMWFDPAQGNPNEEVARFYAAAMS
T1 sequence (P07607 whole entry): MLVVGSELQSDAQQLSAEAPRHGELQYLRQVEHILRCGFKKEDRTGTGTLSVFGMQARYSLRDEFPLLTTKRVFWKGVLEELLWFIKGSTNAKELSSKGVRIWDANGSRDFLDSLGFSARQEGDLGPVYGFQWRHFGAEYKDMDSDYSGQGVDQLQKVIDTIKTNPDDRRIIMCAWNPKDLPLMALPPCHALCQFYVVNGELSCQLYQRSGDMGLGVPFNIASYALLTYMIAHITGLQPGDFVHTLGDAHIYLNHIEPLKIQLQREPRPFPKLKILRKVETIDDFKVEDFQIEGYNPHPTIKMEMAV
T4 sequence (P35846 25-232): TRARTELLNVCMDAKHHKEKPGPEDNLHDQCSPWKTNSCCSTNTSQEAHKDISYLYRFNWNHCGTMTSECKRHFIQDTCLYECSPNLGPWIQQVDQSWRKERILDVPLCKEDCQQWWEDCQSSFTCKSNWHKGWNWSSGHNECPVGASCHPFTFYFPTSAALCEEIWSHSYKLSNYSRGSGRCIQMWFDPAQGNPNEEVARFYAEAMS

A word on the IC50: it is the point on the concentration scale where inhibition reaches its midpoint. `C#CCN(c1ccc(C(=O)N[C@@H](CCC(=O)N[C@H](CCC(=O)O)C(=O)O)C(=O)O)cc1)C1CCc2cc3nc(C)[nH]c(=O)c3cc21` (mixture of isomers) [CB300638 (R, S), N-{-{4-[N-((6RS)-2-methyl-4-oxo-3,4,7,8-tetrahydro-6H-cyclopenta[g]quinazolin-6-yl)-N-(prop-2-ynyl)amino]benzoyl}-L-γ-glutamyl}-D-glutamic acid]: the figures for the Ki in test [1] (setting [9]), in test [2] and in test [3] were 0.42 nM, 166 ± 34 µM and 279 ± 146 µM, respectively. For the same compound, the “Inverse relative affinity for α-FR, L1210-FBP” value in test [4] turned out to be 0.60 ± 0.06. In test [5], the “Inverse relative affinity for α-FR, A431-FBP” value came out at 0.59 ± 0.03. Besides, the “fold increased IC50 in presence of folic acid, KB” value (“fold increased IC50 … KB” below) in test [6] (20 nM LV) is listed as “(140) fold”. The figures for the half-maximal inhibitory concentration (IC50) in test [6] (setting [10]), in test [7] (setting [11]) and in test [8] (setting [12]) were 5.3 ± 2.5 nM, 1400 ± 230 nM and 6.5 ± 0.1 nM, respectively. Moreover, the “fold increased IC50 in presence of folic acid, A431” value in test [7] (20 nM LV) was “(1) fold”. In test [8] (20 nM LV), the “fold increased sensitivity compared with A431, A431-FBP” value (from here on “fold increased sensitivity”) is listed as “(220) fold”. For the same compound, the “fold increased IC50 in presence of folic acid, A431-FBP” value (“fold increased IC50 … A431-FBP” for short) in test [8] (20 nM LV) is given as “(130) fold”.

For the compound `C#CCN(c1ccc(C(=O)N[C@@H](CCC(=O)N[C@H](CCC(=O)O)C(=O)O)C(=O)O)cc1)C1CCc2cc3nc(CO)[nH]c(=O)c3cc21` (mixture of isomers) [CB300945 (R, S)], the Ki in test [1] (Inhibition of isolated L1210 TS, Kiapp) was 2.6 nM and 3.3 nM; in test [2], over 250 µM; in test [3] it was over 250 µM. The “Inverse relative affinity for α-FR, L1210-FBP” value in test [4] was determined as 0.73 ± 0.06. In addition, in test [5], the “Inverse relative affinity for α-FR, A431-FBP” value is 0.67 ± 0.11. Also, the “fold increased IC50 … KB” value in test [6] (20 nM LV) was “(2100) fold”. Moreover, the IC50 in test [6] (setting [10]) is 3.4 ± 0.9 nM; in test [7] (setting [11]), 9800 ± 3400 nM; in test [8] (setting [12]), 2.1 ± 1.1 nM; in test [8] (setting [13]), 6500 ± 860 nM. Also, in test [7] (20 nM LV), the “fold increased IC50 in presence of folic acid, A431” value is “(1) fold”. In addition, the “fold increased sensitivity” value in test [8] (20 nM LV) is listed as “(4700) fold”. The “fold increased IC50 … A431-FBP” value in test [8] (20 nM LV) is “(3100) fold”.

As to `C#CCN(c1ccc(C(=O)N[C@@H](CCC(=O)N(C)C(CCC(=O)O)C(=O)O)C(=O)O)cc1)C1CCc2cc3nc(C)[nH]c(=O)c3cc21` (mixture of isomers) [CB300899 (R, S), N-methyl-N-{N-{4-[N-((6RS)-2-methyl-4-oxo-3,4,7,8-tetrahydro-6H-cyclopenta[g]quinazolin-6-yl)-N-(prop-2-ynyl)amino]benzoyl}-L-γ-glutamyl}-L-glutamic acid], the Ki in test [1] (setting [9]) was 0.78 nM; in test [2], over 250 µM; in test [3] it was over 250 µM. Also, in test [4], the “Inverse relative affinity for α-FR, L1210-FBP” value was found to be 0.62 ± 0.04. Moreover, the “Inverse relative affinity for α-FR, A431-FBP” value in test [5] is on record as 0.64 ± 0.046. Further, the “fold increased IC50 … KB” value in test [6] (20 nM LV) is given as “(430) fold”. Further, the IC50 amounted to 5.1 ± 0.31 nM in test [6] (setting [10]); 2200 ± 400 nM in test [6] (read-out: Inhibition of cell growth, IC50, KB + 1 μM FA, 20 nM LV, + 1 μM folic acid); 2200 ± 170 nM in test [7] (setting [11]); 2100 ± 58 nM in test [7] (read-out: Inhibition of cell growth, IC50, A431 + 1 μM FA, 20 nM LV, + 1 μM folic acid); 0.92 ± 0.12 nM in test [8] (setting [12]); 1900 ± 170 nM in test [8] (setting [13]). The “fold increased IC50 in presence of folic acid, A431” value in test [7] (20 nM LV) was “(1) fold”. Also, the “fold increased sensitivity” value in test [8] (20 nM LV) was “(2400) fold”. In addition, in test [8] (20 nM LV), the “fold increased IC50 … A431-FBP” value is “(2100) fold”.
